Data taken from patent US6737383B1, “Herbicidal oxadiazolidines” (priority 1999, dated 2004).

Key:
[1] = test system: bedstraw; assay: Test B pre/postemergence bedstraw; type: in vivo, Galium aparine; conditions: Postemergence
Outline: (§1)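 Response is a visual 0-to-10 score relative to untreated plants, where 0 means no effect and 10 means complete control, taken twelve to sixteen days after application. Treatments went onto soil at planting and onto foliage of 1- to 4-leaf plants, using a surfactant-containing non-phytotoxic solvent.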

[2] = test system: blackgrass; assay: Test B pre/postemergence blackgrass; type: in vivo, Alopecurus myosuroides; conditions: for Blackgrass plant response rating: scale of 0 to 10 where 0 is no effect and 10 is complete control
Outline: as §1

[3] = test system: surinam grass; assay: Test B pre/postemergence surinam grass; type: in vivo, Brachiaria decumbens; conditions: for B. signalgrass plant response rating: scale of 0 to 10 where 0 is no effect and 10 is complete control
Outline: as §1

[4] = test system: corn; assay: Test B pre/postemergence corn; type: in vivo, Zea mays; conditions: for Corn plant response rating: scale of 0 to 10 where 0 is no effect and 10 is complete control
Outline: as §1

[5] = test system: crabgrass; assay: Test B pre/postemergence crabgrass; type: in vivo, Digitaria sanguinalis; conditions: for Crabgrass plant response rating: scale of 0 to 10 where 0 is no effect and 10 is complete control
Outline: as §1

[6] = test system: pigweed; assay: Test B pre/postemergence pigweed; type: in vivo, Amaranthus retroflexus; conditions: for Redroot pigweed plant response rating: scale of 0 to 10 where 0 is no effect and 10 is complete control
Outline: as §1

[7] = test system: rape; assay: Test B pre/postemergence rape; type: in vivo, Brassica napus; conditions: for Rape plant response rating: scale of 0 to 10 where 0 is no effect and 10 is complete control
Outline: as §1

[8] = test system: soybean; assay: Test B pre/postemergence soybean; type: in vivo, Glycine max; conditions: for Soybean plant response rating: scale of 0 to 10 where 0 is no effect and 10 is complete control
Outline: as §1

[9] = test system: sugar beet; assay: Test B pre/postemergence sugar beet; type: in vivo, Beta vulgaris; conditions: for Sugarbeets plant response rating: scale of 0 to 10 where 0 is no effect and 10 is complete control
Outline: as §1

[10] = test system: velvetleaf; assay: Test B pre/postemergence velvetleaf; type: in vivo, Abutilon theophrasti; conditions: for Velvetleaf plant response rating: scale of 0 to 10 where 0 is no effect and 10 is complete control
Outline: as §1

[11] = test system: wheat; assay: Test B pre/postemergence wheat; type: in vivo, Triticum aestivum; conditions: for Wheat plant response rating: scale of 0 to 10 where 0 is no effect and 10 is complete control
Outline: as §1

[12] = test system: wild oat; assay: Test B pre/postemergence wild oat; type: in vivo, Avena fatua; conditions: for Wild oats plant response rating: scale of 0 to 10 where 0 is no effect and 10 is complete control
Outline: as §1

[13] = test system: purple nutsedge; assay: Test B pre/postemergence purple nutsedge; type: in vivo, Cyperus rotundus; conditions: for Nutsedge plant response rating: scale of 0 to 10 where 0 is no effect and 10 is complete control
Outline: as §1

[14] = test system: rice; assay: Test B flood test rice; type: in vivo, Oryza sativa
Outline: (§2)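 Flood test on plants grown to the 2-leaf stage; treated plants kept in greenhouse twelve to sixteen days, then visually rated against controls on a 0 (no effect) to 10 (complete control) scale.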

[15] = test system: smallflower flatsedge; assay: Test B flood test smallflower flatsedge; type: in vivo, Cyperus difformis
Outline: as §2

[16] = test system: duck salad; assay: Test B flood test duck salad; type: in vivo, Heteranthera limosa
Outline: as §2

[17] = Postemergence, Rate 125 g/ha, scale 0 to 10, 0 is no effect, 10 is complete control
[18] = Postemergence, Rate 250 g/ha, scale 0 to 10, 0 is no effect, 10 is complete control
[19] = Preemergence, Rate 62 g/ha, scale 0 to 10 (0 no effect, 10 complete control)
[20] = Rate 500 g/ha, Postemergence, scale 0 to 10, 0 no effect, 10 complete control
[21] = Postemergence (flood test), Rate 125 g/ha, scale 0 to 10, 0 is no effect, 10 is complete control
[22] = Rate 62 g/ha, Postemergence (flood test species), scale of 0 to 10 where 0 is no effect and 10 is complete control
[23] = Rate 500 g/ha, listed under Postemergence (flood test species), scale 0 to 10, 0 no effect, 10 complete control
[24] = flood test species, listed under Postemergence, Rate 250 g/ha, scale 0 to 10, 0 is no effect, 10 is complete control

## CC(C)N(C(=O)n1oc(=O)n(C2(C)CC2)c1=O)c1ccccc1 [Compound 360]
[1]; Rate 125 g/ha, scale 0 to 10, 0 is no effect, 10 is complete control
  Plant response rating, Bedstraw: 0
[1]; Rate 250 g/ha, scale 0 to 10, 0 is no effect, 10 is complete control
  Plant response rating, Bedstraw: 2
[1]; Rate 62 g/ha, scale of 0 to 10 where 0 is no effect and 10 is complete control
  Bedstraw plant response rating: 0
[1]; Rate 500 g/ha, scale 0 to 10, 0 no effect, 10 complete control
  Plant response rating, Bedstraw: 4
[2]; [17]
  Plant response rating, Blackgrass: 5
[2]; [18]
  Plant response rating, Blackgrass: 6
[2]; [19]
  Plant response rating, Blackgrass: 9
[2]; Preemergence, Rate 125 g/ha
  Blackgrass plant response rating (0 to 10 scale): 9
[2]; Preemergence, Rate 250 g/ha
  Blackgrass plant response rating: 9
[2]; Preemergence, Rate 500 g/ha
  Blackgrass plant response rating: 10
[2]; Rate 62 g/ha, Postemergence
  Blackgrass plant response rating: 5
[2]; [20]
  Plant response rating, Blackgrass: 7
[3]; [17]
  Plant response rating, B. signalgrass: 0
[3]; [18]
  Plant response rating, B. signalgrass: 5
[3]; [19]
  Plant response rating, B. signalgrass: 5
[3]; Preemergence, Rate 125 g/ha
  B. signalgrass plant response rating (0 to 10 scale, 0 is no effect, 10 is complete control): 6
[3]; Preemergence, Rate 250 g/ha
  B. signalgrass plant response rating: 7
[3]; Preemergence, Rate 500 g/ha
  B. signalgrass plant response rating: 7
[3]; Rate 62 g/ha, Postemergence
  B. signalgrass plant response rating: 0
[3]; [20]
  Plant response rating, B. signalgrass: 7
[4]; [17]
  Plant response rating, Corn: 2
[4]; [18]
  Plant response rating, Corn: 6
[4]; [19]
  Plant response rating, Corn: 0
[4]; Preemergence, Rate 125 g/ha
  Corn plant response rating (0 to 10 scale): 3
[4]; Preemergence, Rate 250 g/ha
  Corn plant response rating: 4
[4]; Preemergence, Rate 500 g/ha
  Corn plant response rating: 9
[4]; Rate 62 g/ha, Postemergence
  Corn plant response rating: 2
[4]; [20]
  Plant response rating, Corn: 7
[5]; [17]
  Plant response rating, Crabgrass: 2
[5]; [18]
  Plant response rating, Crabgrass: 5
[5]; [19]
  Plant response rating, Crabgrass: 9
[5]; Preemergence, Rate 125 g/ha
  Crabgrass plant response rating (0 to 10 scale): 10
[5]; Preemergence, Rate 250 g/ha
  Crabgrass plant response rating: 10
[5]; Preemergence, Rate 500 g/ha
  Crabgrass plant response rating: 10
[5]; Rate 62 g/ha, Postemergence
  Crabgrass plant response rating: 2
[5]; [20]
  Plant response rating, Crabgrass: 5
[6]; [17]
  Plant response rating, Redroot pigweed: 0
[6]; [18]
  Plant response rating, Redroot pigweed: 3
[6]; [19]
  Plant response rating, Redroot pigweed: 5
[6]; Preemergence, Rate 125 g/ha
  Redroot pigweed plant response rating (0 to 10 scale): 5
[6]; Preemergence, Rate 250 g/ha
  Redroot pigweed plant response rating: 10
[6]; Preemergence, Rate 500 g/ha
  Redroot pigweed plant response rating: 10
[6]; Rate 62 g/ha, Postemergence
  Redroot pigweed plant response rating: 0
[6]; [20]
  Plant response rating, Redroot pigweed: 6
[7]; [17]
  Plant response rating, Rape: 0
[7]; [18]
  Plant response rating, Rape: 0
[7]; [19]
  Plant response rating, Rape: 0
[7]; Preemergence, Rate 125 g/ha
  Rape plant response rating (0 to 10 scale): 0
[7]; Preemergence, Rate 250 g/ha
  Rape plant response rating: 0
[7]; Preemergence, Rate 500 g/ha
  Rape plant response rating: 0
[7]; Rate 62 g/ha, Postemergence
  Rape plant response rating: 0
[7]; [20]
  Plant response rating, Rape: 0
[8]; [17]
  Plant response rating, Soybean: 2
[8]; [18]
  Plant response rating, Soybean: 2
[8]; [19]
  Plant response rating, Soybean: 0
[8]; Preemergence, Rate 125 g/ha
  Soybean plant response rating (0 to 10 scale): 0
[8]; Preemergence, Rate 250 g/ha
  Soybean plant response rating: 0
[8]; Preemergence, Rate 500 g/ha
  Soybean plant response rating: 5
[8]; Rate 62 g/ha, Postemergence
  Soybean plant response rating: 1
[8]; [20]
  Plant response rating, Soybean: 3
[9]; [17]
  Plant response rating, Sugarbeets: 0
[9]; [18]
  Plant response rating, Sugarbeets: 2
[9]; [19]
  Plant response rating, Sugarbeets: 2
[9]; Preemergence, Rate 125 g/ha
  Sugarbeets plant response rating (0 to 10 scale): 6
[9]; Preemergence, Rate 250 g/ha
  Sugarbeets plant response rating: 6
[9]; Preemergence, Rate 500 g/ha
  Sugarbeets plant response rating: 7
[9]; Rate 62 g/ha, Postemergence
  Sugarbeets plant response rating: 0
[9]; [20]
  Plant response rating, Sugarbeets: 7
[10]; [17]
  Plant response rating, Velvetleaf: 0
[10]; [18]
  Plant response rating, Velvetleaf: 0
[10]; [19]
  Plant response rating, Velvetleaf: 3
[10]; Preemergence, Rate 125 g/ha
  Velvetleaf plant response rating (0 to 10 scale): 6
[10]; Preemergence, Rate 250 g/ha
  Velvetleaf plant response rating: 7
[10]; Preemergence, Rate 500 g/ha
  Velvetleaf plant response rating: 7
[10]; Rate 62 g/ha, Postemergence
  Velvetleaf plant response rating: 0
[10]; [20]
  Plant response rating, Velvetleaf: 4
[11]; [17]
  Plant response rating, Wheat: 4
[11]; [18]
  Plant response rating, Wheat: 4
[11]; [19]
  Plant response rating, Wheat: 3
[11]; Preemergence, Rate 125 g/ha
  Wheat plant response rating (0 to 10 scale): 6
[11]; Preemergence, Rate 250 g/ha
  Wheat plant response rating: 7
[11]; Preemergence, Rate 500 g/ha
  Wheat plant response rating: 8
[11]; Rate 62 g/ha, Postemergence
  Wheat plant response rating: 3
[11]; [20]
  Plant response rating, Wheat: 6
[12]; [17]
  Plant response rating, Wild oats: 3
[12]; [18]
  Plant response rating, Wild oats: 3
[12]; [19]
  Plant response rating, Wild oats: 3
[12]; Preemergence, Rate 125 g/ha
  Wild oats plant response rating (0 to 10 scale): 10
[12]; Preemergence, Rate 250 g/ha
  Wild oats plant response rating: 10
[12]; Preemergence, Rate 500 g/ha
  Wild oats plant response rating: 10
[12]; Rate 62 g/ha, Postemergence
  Wild oats plant response rating: 3
[12]; [20]
  Plant response rating, Wild oats: 5
[13]; [17]
  Plant response rating, Nutsedge: 0
[13]; [18]
  Plant response rating, Nutsedge: 2
[13]; [19]
  Plant response rating, Nutsedge: 0
[13]; Preemergence, Rate 125 g/ha
  Nutsedge plant response rating (0 to 10 scale): 0
[13]; Preemergence, Rate 250 g/ha
  Nutsedge plant response rating: 0
[13]; Preemergence, Rate 500 g/ha
  Nutsedge plant response rating: 7
[13]; Rate 62 g/ha, Postemergence
  Nutsedge plant response rating: 0
[13]; [20]
  Plant response rating, Nutsedge: 4
[14]; [21]
  Plant response rating, Rice: 0
[14]; [22]
  Rice plant response rating: 0
[14]; [23]
  Plant response rating, Rice: 3
[14]; [24]
  Plant response rating, Rice: 3
[15]; [21]
  Plant response rating, S. Flatsedge: 4
[15]; [22]
  S. Flatsedge plant response rating: 2
[15]; [23]
  Plant response rating, S. Flatsedge: 8
[15]; [24]
  Plant response rating, S. Flatsedge: 4
[16]; [21]
  Plant response rating, Ducksalad: 0
[16]; [22]
  Ducksalad plant response rating: 0
[16]; [23]
  Plant response rating, Ducksalad: 0
[16]; [24]
  Plant response rating, Ducksalad: 0
